In patent publication US20230174492A1, “SUBSTITUTED CONDENSED AZINES AS ANTHELMINTIC COMPOUNDS” (Bayer Animal Health GmbH, priority 2020, published 2023):

Columns and labels:
Format in all cases: cell-based
D. immitis Slo-1 = D. immitis Slo-1 (Dirofilaria immitis, UniProt I0DFK5); experiment: In Vitro Assay 2: D. immitis Slo-1, action at a recombinant D. immitis cell line (membrane potential, FLIPR)
[1] = tested on: Nippostrongylus brasiliensis; experiment: In Vitro Assay 3: Nippostrongylus brasiliensis (NIPOBR), acetylcholine esterase readout; conditions: adult worms, read-out: activity (reduction of AChE compared to negative control); for inhibition at 1 µg/mL: at 1 μg/ml; for inhibition at 10 µg/mL: at 10 μg/ml
Experimental: In Vitro Assay 3: Nippostrongylus brasiliensis (NIPOBR)
Adult Nippostrongylus brasiliensis are washed with saline buffer containing 100 U/ml penicillin, 0.1 mg/ml streptomycin and 2.5 μg/ml amphotericin B. Test compounds are dissolved in DMSO and worms are incubated in medium in a final concentration of 10 μg/ml (10 ppm) respectively 1 μg/ml (1 ppm). An aliquot of the medium is used to determine the acetylcholine esterase activity in comparison to a negative control. The principle of measuring acetylcholine esterase as readout for anthelmintic activity is described in Rapson et al (1986) and Rapson et al (1987).

[2] = tested on: Dirofilaria immitis microfilariae; experiment: In Vitro Assay 4: Dirofilaria immitis microfilariae (DIROIM L1), motility; conditions: 72 h
[3] = tested on: Dirofilaria immitis third-stage larvae; experiment: In Vitro Assay 5: Dirofilaria immitis (DIROIM L4), motility; conditions: 72 h
[4] = tested on: Nippostrongylus brasiliensis; experiment: In Vitro Assay 3: Nippostrongylus brasiliensis (NIPOBR), acetylcholine esterase readout; conditions: read-out: activity (reduction of AChE compared to negative control)

Sequence of D. immitis Slo-1 (I0DFK5 1-1119): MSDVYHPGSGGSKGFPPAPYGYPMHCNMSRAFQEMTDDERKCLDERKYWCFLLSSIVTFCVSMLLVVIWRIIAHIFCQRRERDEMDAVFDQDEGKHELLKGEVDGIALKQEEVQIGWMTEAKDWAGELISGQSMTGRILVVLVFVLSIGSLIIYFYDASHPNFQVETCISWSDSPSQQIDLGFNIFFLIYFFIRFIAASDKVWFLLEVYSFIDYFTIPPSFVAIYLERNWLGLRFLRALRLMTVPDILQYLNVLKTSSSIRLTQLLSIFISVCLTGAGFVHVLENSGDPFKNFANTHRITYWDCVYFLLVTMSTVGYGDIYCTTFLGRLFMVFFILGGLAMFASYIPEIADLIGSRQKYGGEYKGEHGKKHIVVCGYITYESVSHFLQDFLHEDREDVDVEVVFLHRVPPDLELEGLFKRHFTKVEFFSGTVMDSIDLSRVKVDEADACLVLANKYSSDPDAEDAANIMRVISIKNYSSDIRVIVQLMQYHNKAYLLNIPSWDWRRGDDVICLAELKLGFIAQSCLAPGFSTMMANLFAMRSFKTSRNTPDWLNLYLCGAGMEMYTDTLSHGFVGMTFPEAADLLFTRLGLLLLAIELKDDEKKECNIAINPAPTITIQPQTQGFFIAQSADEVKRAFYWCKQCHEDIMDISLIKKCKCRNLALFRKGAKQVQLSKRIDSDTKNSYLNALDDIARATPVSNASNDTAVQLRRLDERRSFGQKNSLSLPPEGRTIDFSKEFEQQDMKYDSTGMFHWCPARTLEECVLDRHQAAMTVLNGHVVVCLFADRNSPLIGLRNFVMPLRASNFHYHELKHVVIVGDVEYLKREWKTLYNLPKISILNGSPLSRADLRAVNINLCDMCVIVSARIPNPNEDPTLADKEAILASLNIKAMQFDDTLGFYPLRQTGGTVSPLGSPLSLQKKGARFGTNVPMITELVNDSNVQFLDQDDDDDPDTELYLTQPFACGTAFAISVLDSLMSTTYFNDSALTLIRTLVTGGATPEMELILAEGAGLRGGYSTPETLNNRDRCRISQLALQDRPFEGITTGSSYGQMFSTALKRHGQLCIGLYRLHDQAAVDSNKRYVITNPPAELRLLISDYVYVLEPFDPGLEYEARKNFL

CN(C)c1c(NC(=O)C2CCOc3ccccc32)cnc2c(-c3cc(F)cc(F)c3F)cccc12 (racemic) [Example 5, N-(4-(Dimethylamino)-8-(2,3,5-trifluorophenyl)quinolin-3-yl)chroman-4-carboxamide]
EC50 (D. immitis Slo-1): 100 to 1000 nM
inhibition at 1 µg/mL [1]: > 80%
inhibition at 10 µg/mL [1]: > 80%
EC50 [2]: < 0.1 µg/mL
EC50 [3]: < 0.1 µg/mL
inhibition at 0.1 µg/mL [4]: > 80%

CN(C)c1c(NC(=O)C2CCc3ccccc32)cnc2c(-c3cc(F)cc(F)c3F)cccc12 (racemic) [Example 6, N-(4-(Dimethylamino)-8-(2,3,5-trifluorophenyl)quinolin-3-yl)-2,3-dihydro-1H-indene-1-carboxamide]
EC50 (D. immitis Slo-1): 100 to 1000 nM
EC50 [2]: < 0.1 µg/mL
EC50 [3]: < 0.1 µg/mL

O=C(Nc1cnc2c(-c3cc(F)cc(F)c3F)cccc2c1N1CCOCC1)C1CCOc2ccccc21 (racemic) [Example 7, N-(4-Morpholino-8-(2,3,5-trifluorophenyl)quinolin-3-yl)chroman-4-carboxamide]
EC50 (D. immitis Slo-1): 10 to 100 nM
inhibition at 1 µg/mL [1]: > 80%
inhibition at 10 µg/mL [1]: > 80%
EC50 [2]: < 0.1 µg/mL
EC50 [3]: < 0.1 µg/mL

CCc1c(NC(=O)C2CCOc3ccccc32)cnc2c(-c3cc(F)cc(F)c3F)cccc12 (racemic) [Example 8, N-(4-Ethyl-8-(2,3,5-trifluorophenyl)quinolin-3-yl)chroman-4-carboxamide]
EC50 (D. immitis Slo-1): 100 to 1000 nM
inhibition at 1 µg/mL [1]: > 80%
inhibition at 10 µg/mL [1]: > 80%
EC50 [3]: < 0.1 µg/mL

O=C(Nc1cnc2c(-c3cc(F)cc(F)c3F)cccc2c1C1CCOCC1)C1CCOc2ccccc21 (racemic) [Example 9, N-(4-(Tetrahydro-2H-pyran-4-yl)-8-(2,3,5-trifluorophenyl)quinolin-3-yl)chroman-4-carboxamide]
EC50 (D. immitis Slo-1): 100 to 1000 nM
inhibition at 1 µg/mL [1]: > 80%
inhibition at 10 µg/mL [1]: > 80%
EC50 [2]: < 0.1 µg/mL
EC50 [3]: < 0.1 µg/mL
inhibition at 0.1 µg/mL [4]: > 80%

O=C(Nc1cnc2c(-c3cc(F)cc(F)c3F)c(F)ccc2c1C1CCOCC1)C1CCOc2ccccc21 (racemic) [Example 10, N-(7-Fluoro-4-(tetrahydro-2H-pyran-4-yl)-8-(2,3,5-trifluorophenyl)quinolin-3-yl)chroman-4-carboxamide]
EC50 (D. immitis Slo-1): 10 to 100 nM
inhibition at 1 µg/mL [1]: > 80%
inhibition at 10 µg/mL [1]: > 80%
EC50 [2]: < 0.1 µg/mL
EC50 [3]: < 0.1 µg/mL
inhibition at 0.1 µg/mL [4]: > 80%

CN(C)c1c(NC(=O)C2CCOc3ccccc32)cnc2c(-c3cc(F)cc(F)c3F)c(F)ccc12 (racemic) [Example 11, N-(4-(dimethylamino)-7-fluoro-8-(2,3,5-trifluorophenyl)quinolin-3-yl)chroman-4-carboxamide]
EC50 (D. immitis Slo-1): 10 to 100 nM
inhibition at 1 µg/mL [1]: > 80%
inhibition at 10 µg/mL [1]: > 80%
EC50 [2]: < 0.1 µg/mL
EC50 [3]: < 0.1 µg/mL
inhibition at 0.1 µg/mL [4]: > 80%

CN(C)c1c(NC(=O)C2CCc3ccccc32)cnc2c(-c3cc(F)cc(F)c3F)c(F)ccc12 (racemic) [Example 12, N-(4-(dimethylamino)-7-fluoro-8-(2,3,5-trifluorophenyl)quinolin-3-yl)-2,3-dihydro-1H-indene-1-carboxamide]
EC50 (D. immitis Slo-1): 100 to 1000 nM
EC50 [2]: < 0.1 µg/mL
EC50 [3]: < 0.1 µg/mL

CCc1c(NC(=O)C2CCOc3ccccc32)cnc2c(-c3cc(F)cc(F)c3F)c(F)ccc12 (racemic) [Example 13, N-(4-ethyl-7-fluoro-8-(2,3,5-trifluorophenyl)quinolin-3-yl)chromane-4-carboxamide]
EC50 (D. immitis Slo-1): 10 to 100 nM
inhibition at 1 µg/mL [1]: > 80%
inhibition at 10 µg/mL [1]: > 80%
EC50 [2]: < 0.1 µg/mL
EC50 [3]: < 0.1 µg/mL
inhibition at 0.1 µg/mL [4]: > 80%

O=C(Nc1cnc2c(-c3cc(Cl)cc(Cl)c3)cccc2c1C1CCOCC1)C1CCc2ccccc21 (racemic) [Example 14, N-(8-(3,5-dichlorophenyl)-4-(tetrahydro-2H-pyran-4-yl)quinolin-3-yl)-2,3-dihydro-1H-indene-1-carboxamide]
EC50 (D. immitis Slo-1): 100 to 1000 nM
inhibition at 1 µg/mL [1]: > 80%
inhibition at 10 µg/mL [1]: > 80%
EC50 [2]: < 0.1 µg/mL
EC50 [3]: < 0.1 µg/mL
inhibition at 0.1 µg/mL [4]: > 80%

O=C(Nc1cnc2c(-c3cc(Cl)cc(Cl)c3)c(F)ccc2c1N1CCOCC1)C1CCOc2ccccc21 (racemic) [Example 15, N-(8-(3,5-dichlorophenyl)-7-fluoro-4-morpholinoquinolin-3-yl)chromane-4-carboxamide]
EC50 (D. immitis Slo-1): 10 to 100 nM
inhibition at 1 µg/mL [1]: > 80%
inhibition at 10 µg/mL [1]: > 80%
EC50 [2]: < 0.1 µg/mL
EC50 [3]: < 0.1 µg/mL

CCc1c(NC(=O)C2CCOc3ccccc32)cnc2c(-c3cc(Cl)cc(Cl)c3)c(F)ccc12 (racemic) [Example 16, N-(8-(3,5-dichlorophenyl)-4-ethyl-7-fluoroquinolin-3-yl)chromane-4-carboxamide]
EC50 (D. immitis Slo-1): 100 to 1000 nM
inhibition at 1 µg/mL [1]: > 80%
inhibition at 10 µg/mL [1]: > 80%
EC50 [2]: < 0.1 µg/mL
EC50 [3]: < 0.1 µg/mL
inhibition at 0.1 µg/mL [4]: > 80%

CN(C)c1c(NC(=O)C2CCOc3ccccc32)cnc2c(-c3cccc(Cl)c3Cl)c(F)ccc12 (racemic) [Example 17, N-(8-(2,3-dichlorophenyl)-4-(dimethylamino)-7-fluoroquinolin-3-yl)chroman-4-carboxamide]
EC50 (D. immitis Slo-1): 100 to 1000 nM
inhibition at 1 µg/mL [1]: > 80%
inhibition at 10 µg/mL [1]: > 80%
EC50 [2]: < 0.1 µg/mL
EC50 [3]: < 0.1 µg/mL
inhibition at 0.1 µg/mL [4]: > 80%

CN(C)c1c(NC(=O)C2CCc3ccccc32)cnc2c(-c3cccc(Cl)c3Cl)c(F)ccc12 (racemic) [Example 18, N-(8-(2,3-dichlorophenyl)-4-(dimethylamino)-7-fluoroquinolin-3-yl)-2,3-dihydro-1H-indene-1-carboxamide]
EC50 (D. immitis Slo-1): 100 to 1000 nM
inhibition at 1 µg/mL [1]: > 80%
inhibition at 10 µg/mL [1]: > 80%
EC50 [2]: < 0.1 µg/mL
EC50 [3]: < 0.1 µg/mL

CN(C)c1c(NC(=O)[C@H]2CCOc3ccccc32)cnc2c(-c3cc(F)cc(F)c3F)cccc12 [Example 1, (S)-N-(4-(dimethylamino)-8-(2,3,5-trifluorophenyl)quinolin-3-yl)chromane-4-carboxamide]
EC50 (D. immitis Slo-1): 100 to 1000 nM
inhibition at 1 µg/mL [1]: > 80%
inhibition at 10 µg/mL [1]: > 80%
EC50 [2]: < 0.1 µg/mL
EC50 [3]: < 0.1 µg/mL

CN(C)c1c(NC(=O)[C@@H]2CCc3ccccc32)cnc2c(-c3cc(F)cc(F)c3F)cccc12 [Example 4, (R)-N-(4-(dimethylamino)-8-(2,3,5-trifluorophenyl)quinolin-3-yl)-2,3-dihydro-1H-indene-1-carboxamide]
EC50 (D. immitis Slo-1): 100 to 1000 nM
EC50 [2]: < 0.1 µg/mL
EC50 [3]: < 0.1 µg/mL
